How the values were obtained:
[1] = target: T1, hFASN enzyme (full length) (Homo sapiens, UniProt P49327); test: Fatty Acid Synthase (FASN) Inhibition Scintillation Proximity Assay; assay type: biochemical; settings: for IC50: mean where tested more than once, ~ = standard error of pIC50 larger than 0.5; for inhibition at 10 µM: read-out: FASN % Effect @1E−05M
T1 construct: 10 μL hFASN enzyme (full length, 300 ng, purified in house); made in house
Summary of the method: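 Purified full-length human FASN (300 ng) incubated 60 min at room temperature with NADPH, [3H]-acetyl-CoA and malonyl-CoA in 100 mM KH2PO4 pH 7.5, 1 mM DTT; compound at 30 μM to 0.01 μM. [3H]-palmitate captured by SPA imaging beads; IC50 from 4-parameter fit, reported as pIC50.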

[2] = system: LNCaP_Vancouver prostate cells; test: In Vitro LNCaP Vancouver Prostate Cell Proliferation Assay in Lipid Reduced Medium; assay type: cell-based; settings: lipid reduced serum, 96 h, read-out: Vancouver Cells pIC50 (converted)
Method: LNCaP_Vancouver prostate cells were obtained from the Vancouver Prostate Cancer Centre. Cells were maintained in RPMI-1640, 10% Fetal Calf Serum (FCS, Hyclone), 2 mM glutamine and 50 μg/ml Gentamicin.
For the proliferation experiment 1500 LNCaP_Vancouver cells per well were seeded in a 384-well black with clear bottom plate (costar 3712BC) in 40 μl RPMI-1640, 10% Lipid reduced serum (LRS, Hyclone), 50 μg/ml Gentamicin and 2 mM Glutamine and incubated at 37° C., 5% CO2. The next day 10 μl of test compound/DMSO diluted in medium was added (3E-5M, 1E-5M, 3E-6M, 1E-6M, 3E-7M, 1E-7M, 3E-8M, 1E-8M final concentration). Compounds were tested in duplicate. After 96 h incubation at 37° C., 5% CO2 25 μl ATP-glow mix was added. The plate was incubated for 30 min at 37° C. and luminescence was measured with the Envision.
(§1) pIC50 values were calculated as follows. Raw data generated by the instruments were normalized to % Controlmin values, which were calculated as: % Controlmin=100*(x−mLC)/(mHC−mLC),
(§2) where mLC and mHC are the means of the low control wells and high control wells on the plate, after manual exclusion of outliers. The relation between the % Controlmin values and concentration was fitted to a 4-parameter logistic curve using a non-linear least squares regression method to determine the pIC50 value. Outlying data points were excluded manually to get a correct fit. The pIC50 corresponds to −log 10(IC50), if the IC50 is expressed in molar units (http://www.ncbi.nlm.nih.gov/books/NBK91994). The IC50 parameter was always determined by non-linear regression, but one or more of the other parameters may have been held fixed on a relevant input value, such as 0 for the bottom values.
(§3) For dose response curves with FASN inhibitors in LNCaP_Vancouver or PC-3M-Luc_C6 cells the curves bottom out around 30 to 40% of the control value. A standard fit PL2, forcing the lower bound to this level was used.
(§4) Representative compounds of the present invention were tested according to the procedure as described in Biological Example 4a and 4b above, with results as listed in Table BIO-4, below.

[3] = system: PC-3M-Luc-C6 prostate cells; test: In Vitro PC-3M-Luc-C6 Prostate Cell Proliferation Assay in Lipid Reduced Medium; assay type: cell-based; settings: read-out: PC-3M-Luc-C6 Cells pIC50 (μM) (converted), lipid reduced serum, 96 h
Method: PC-3M-Luc-C6 prostate cells were obtained from Xenogen Corporation. Cells were maintained in MEM supplemented with 10% Fetal Calf Serum (FCS, Hyclone), 2 mM glutamine, 1 mM sodium pyruvate, 1% BME vitamins (available from for example, Sigma Aldrich), 0.1 mM non Essential Amino Acid and 50 μg/ml Gentamicin. The cells were passaged twice a week.
1000 PC-3M-Luc-C6 prostate cells (Xenogen) were seeded in a 384-well black with clear bottom plate (costar 3712BC) in 40 μl MEM, 10% LRS (Hyclo ne), 50 μg/ml Gentamicin, 2 mM Glutamine, 1 mM Sodium pyruvaat, 1% BME vitamins and 0.1 mM non Essential Amino Acid and incubated at 37° C., 5% CO2. The next day 10 μl test compound/DMSO diluted in medium was added (3E-5M, 1E-5M, 3E-6M, 1E-6M, 3E-7M, 1E-7M, 3E-8M, 1E-8M final concentration). Compounds were tested in duplicate. After 96 h incubation at 37° C., 5% CO2 25 μl ATP-glow mix was added. The plate was incubated for 30 min at 37° C. and luminescence was measured with the Envision.
as §1, §2, §3, §4

T1 sequence (P49327 whole entry): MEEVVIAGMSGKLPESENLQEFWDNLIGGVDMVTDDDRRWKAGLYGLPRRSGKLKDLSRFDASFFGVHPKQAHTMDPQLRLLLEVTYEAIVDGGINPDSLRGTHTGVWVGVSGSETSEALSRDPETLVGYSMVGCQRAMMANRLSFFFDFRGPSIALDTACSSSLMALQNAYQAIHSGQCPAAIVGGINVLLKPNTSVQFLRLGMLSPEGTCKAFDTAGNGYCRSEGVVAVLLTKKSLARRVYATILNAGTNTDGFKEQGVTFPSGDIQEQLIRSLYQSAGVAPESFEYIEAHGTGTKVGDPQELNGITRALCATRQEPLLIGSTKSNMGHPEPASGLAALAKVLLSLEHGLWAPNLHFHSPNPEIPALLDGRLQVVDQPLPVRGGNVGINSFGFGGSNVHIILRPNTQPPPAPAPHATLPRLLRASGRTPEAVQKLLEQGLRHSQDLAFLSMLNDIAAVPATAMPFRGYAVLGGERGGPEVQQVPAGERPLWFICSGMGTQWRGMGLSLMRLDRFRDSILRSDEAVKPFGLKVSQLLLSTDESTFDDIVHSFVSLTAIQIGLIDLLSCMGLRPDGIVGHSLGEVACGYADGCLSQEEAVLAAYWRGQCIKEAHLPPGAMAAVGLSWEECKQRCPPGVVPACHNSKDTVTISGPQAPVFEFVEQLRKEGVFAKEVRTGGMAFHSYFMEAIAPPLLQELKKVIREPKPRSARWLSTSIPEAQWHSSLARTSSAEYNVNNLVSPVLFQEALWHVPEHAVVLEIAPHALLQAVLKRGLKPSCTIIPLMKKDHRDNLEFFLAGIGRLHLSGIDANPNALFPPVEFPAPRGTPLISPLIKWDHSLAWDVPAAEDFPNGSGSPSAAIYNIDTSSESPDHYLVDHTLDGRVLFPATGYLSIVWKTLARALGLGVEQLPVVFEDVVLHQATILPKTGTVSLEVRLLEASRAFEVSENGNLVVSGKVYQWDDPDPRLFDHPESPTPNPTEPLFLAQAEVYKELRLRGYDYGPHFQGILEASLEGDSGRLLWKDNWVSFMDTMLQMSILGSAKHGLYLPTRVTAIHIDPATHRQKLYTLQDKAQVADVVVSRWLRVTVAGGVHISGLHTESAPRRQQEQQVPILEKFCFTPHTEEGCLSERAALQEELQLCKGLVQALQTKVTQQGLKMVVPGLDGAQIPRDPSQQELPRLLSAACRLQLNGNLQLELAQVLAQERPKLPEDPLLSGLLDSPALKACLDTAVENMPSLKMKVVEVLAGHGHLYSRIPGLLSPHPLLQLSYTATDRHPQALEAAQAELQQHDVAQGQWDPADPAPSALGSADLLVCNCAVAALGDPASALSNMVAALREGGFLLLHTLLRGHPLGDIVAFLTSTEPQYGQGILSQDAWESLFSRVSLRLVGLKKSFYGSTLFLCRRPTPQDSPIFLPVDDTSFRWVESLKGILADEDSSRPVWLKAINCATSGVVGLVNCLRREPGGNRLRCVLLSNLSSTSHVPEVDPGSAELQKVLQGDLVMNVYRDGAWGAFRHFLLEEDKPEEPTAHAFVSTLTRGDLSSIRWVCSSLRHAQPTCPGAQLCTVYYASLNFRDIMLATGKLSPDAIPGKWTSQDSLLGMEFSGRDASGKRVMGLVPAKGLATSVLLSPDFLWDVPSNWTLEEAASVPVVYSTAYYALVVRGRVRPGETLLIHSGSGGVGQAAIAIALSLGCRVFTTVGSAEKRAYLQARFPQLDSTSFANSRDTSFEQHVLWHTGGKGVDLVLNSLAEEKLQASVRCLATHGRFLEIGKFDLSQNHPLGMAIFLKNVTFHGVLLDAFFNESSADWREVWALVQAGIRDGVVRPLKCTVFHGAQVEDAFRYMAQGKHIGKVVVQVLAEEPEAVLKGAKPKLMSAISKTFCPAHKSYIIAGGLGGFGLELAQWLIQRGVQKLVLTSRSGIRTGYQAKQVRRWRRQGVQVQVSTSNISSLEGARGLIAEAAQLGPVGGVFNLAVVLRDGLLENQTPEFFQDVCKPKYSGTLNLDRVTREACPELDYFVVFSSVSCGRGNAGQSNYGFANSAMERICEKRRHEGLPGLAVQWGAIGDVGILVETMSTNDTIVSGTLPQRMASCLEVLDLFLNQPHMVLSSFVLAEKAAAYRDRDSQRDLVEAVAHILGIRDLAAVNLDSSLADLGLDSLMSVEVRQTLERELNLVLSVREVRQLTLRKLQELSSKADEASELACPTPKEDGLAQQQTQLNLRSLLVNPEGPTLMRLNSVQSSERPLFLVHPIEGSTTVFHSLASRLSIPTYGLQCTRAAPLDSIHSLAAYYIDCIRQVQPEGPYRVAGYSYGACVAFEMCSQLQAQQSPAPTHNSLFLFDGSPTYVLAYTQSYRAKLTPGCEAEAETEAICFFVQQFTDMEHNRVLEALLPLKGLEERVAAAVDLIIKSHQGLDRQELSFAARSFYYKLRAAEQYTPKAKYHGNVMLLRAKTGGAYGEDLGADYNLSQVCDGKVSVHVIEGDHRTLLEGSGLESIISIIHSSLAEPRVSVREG

| IC50 [1] | inhibition at 10 µM [1] | IC50 [2] | IC50 [3] | Structure (SMILES) |
| --- | --- | --- | --- | --- |
| 0.437 µM | 88% | 1.95 µM | 0.776 µM | CC(C)N(C)c1ccc(C(=O)N2CCC(c3ccc(-c4cnn(C)c4)cc3)CC2)cc1NC(=O)c1ccc(Cl)nc1 [Compound 274, 6-chloro-N-(2-(isopropyl(methyl)amino)-5-(4-(4-(1-methyl-1H-pyrazol-4-yl)phenyl)piperidine-1-carbonyl)phenyl)nicotinamide] |
| 0.0562 µM | 99% | 0.692 µM | 0.12 µM | CN(C)c1ccc(C(=O)N2CCC(c3ccc(-c4cnn(C)c4)cc3)CC2)cc1NC(=O)c1ccc(Cl)nc1 [Compound 275, 6-chloro-N-(2-(dimethylamino)-5-(4-(4-(1-methyl-1H-pyrazol-4-yl)phenyl)piperidine-1-carbonyl)phenyl)nicotinamide] |
| 0.372 µM | 93% | 1.38 µM | 0.49 µM | CC(C)Nc1ccc(C(=O)Nc2cc(C(=O)N3CCC(c4ccc(-c5cnn(C)c5)cc4)CC3)ccc2N(C)C(C)C)cn1 [Compound 276, N-(2-(isopropyl(methyl)amino)-5-(4-(4-(1-methyl-1H-pyrazol-4-yl)phenyl)piperidine-1-carbonyl)phenyl)-6-(isopropylamino)nicotinamide] |
| 0.813 µM | 85% | 6.17 µM | 2.14 µM | COCCN(C)c1ccc(C(=O)N2CCC(c3ccc(-c4cnn(C)c4)cc3)CC2)cc1NC(=O)C1CC1 [Compound 278, N-(2-((2-methoxyethyl)(methyl)amino)-5-(4-(4-(1-methyl-1H-pyrazol-4-yl)phenyl)piperidine-1-carbonyl)phenyl)cyclopropanecarboxamide] |
| 0.0708 µM | 99% | 0.372 µM | 0.0724 µM | CC(C)Nc1ccc(C(=O)Nc2cc(C(=O)N3CCC(c4ccc(-c5cnn(C)c5)cc4)CC3)ccc2N(C)C)cn1 [Compound 280, N-(2-(dimethylamino)-5-(4-(4-(1-methyl-1H-pyrazol-4-yl)phenyl)piperidine-1-carbonyl)phenyl)-6-(isopropylamino)nicotinamide] |
| 0.457 µM | 93% | ~1.35 µM | ~0.776 µM | COCCN(C)c1ccc(C(=O)N2CCC(c3ccc(-c4cnn(C)c4)cc3)CC2)cc1NC(=O)c1ccc(NC(C)C)nc1 [Compound 281, 6-(isopropylamino)-N-(2((2-methoxyethyl)(methyl)amino)-5-(4-(4-(1-methyl-1H-pyrazol-4-yl)phenyl)piperidine-1-carbonyl)phenyl)nicotinamide] |
| 0.0708 µM | 99% | 1.02 µM | 0.17 µM | COCCNc1ccc(C(=O)N2CCC(c3ccc(-c4cnn(C)c4)cc3)CC2)cc1NC(=O)c1ccc(NC(C)C)nc1 [Compound 282, 6-(isopropylamino)-N-(2-((2-methoxyethyl)amino)-5-(4-(4-(1-methyl-1H-Pyrazol-4-yl)phenyl)piperidine-1-carbonyl)phenyl)nicotinamide] |
| 0.11 µM | 98% | 1.05 µM | 0.245 µM | CC(C)Nc1ccc(C(=O)Nc2cc(C(=O)N3CCC(c4ccc(-c5cnn(C)c5)cc4)CC3)ccc2NC2CC2)cn1 [Compound 283, N-(2-(cyclopropylamino)-5-(4-(4-(1-methyl-1H-pyrazol-4-yl)phenyl)piperidine-1-carbonyl)phenyl)-6-(isopropylamino)nicotinamide] |
| 0.126 µM | 95% | 1.02 µM | 0.195 µM | CC(C)Nc1ccc(C(=O)Nc2cc(C(=O)N3CCC(c4ccc(-c5cnn(C)c5)cc4)CC3)ccc2NC(C)C)cn1 [Compound 284, 6-(isopropylamino)-N-(2-(isopropylamino)-5-(4-(4-(1-methyl-1H-pyrazol-4-yl)phenyl)piperidine-1-carbonyl)phenyl)nicotinamide] |
| ~0.166 µM | 74% | ~0.537 µM | 0.126 µM | CC(C)Nc1ccc(C(=O)Nc2cc(C(=O)N3CCC(c4ccc(-c5cnn(C)c5)cc4)CC3)ccc2N)cn1 [Compound 285, N-(2-amino-5-(4-(4-(1-methyl-1H-pyrazol-4-yl)phenyl)piperidine-1-carbonyl)phenyl)-6-(isopropylamino)nicotinamide] |
| 0.513 µM | 91% | 4.07 µM | 1.82 µM | COCCNc1ccc(C(=O)N2CCC(c3ccc(-c4cnn(C)c4)cc3)CC2)cc1NC(=O)C1CC1 [Compound 286, N-(2-((2-methoxyethyl)amino)-5-(4-(4-(1-methyl-1H-pyrazol-4-yl)phenyl)piperidine-1-carbonyl)phenyl)cyclopropanecarboxamide] |
| 0.1 µM | 98% | 0.977 µM | 0.186 µM | CC(C)Nc1ccc(C(=O)Nc2cc(C(=O)N3CCC(c4ccc(-c5cnn(C)c5)cc4)CC3)ccc2N(C)C2CC2)cn1 [Compound 287, N-(2-(cyclopropyl(methyl)amino)-5-(4-(4-(1-methyl-1H-pyrazol-4-yl)phenyl)piperidine-1-carbonyl)phenyl)-6-(isopropylamino)nicotinamide] |
| 0.871 µM | 88% | ~9.77 µM | 3.09 µM | CN(c1ccc(C(=O)N2CCC(c3ccc(-c4cnn(C)c4)cc3)CC2)cc1NC(=O)C1CC1)C1CC1 [Compound 288, N-(2-(cyclopropyl(methyl)amino)-5-(4-(4-(1-methyl-1H-pyrazol-4-yl)phenyl)piperidine-1-carbonyl)phenyl)cyclopropanecarboxamide] |
| 0.00955 µM | 118% | 0.0295 µM | ~0.00813 µM | Cc1ccc(C(=O)N2CC(c3ccc(-c4cnn(C)c4)cc3)C2)cc1NC(=O)c1ccc(N2CCOCC2)nc1 [Compound #66, N-(2-methyl-5-(3-(4-(1-methyl-1H-pyrazol-4-yl)phenyl)azetidine-1-carbonyl)phenyl)-6-morpholinonicotinamide] |
| ~0.0102 µM | 120% | ~0.0347 µM | ~0.00871 µM | Cc1ccc(C(=O)N2CC(c3ccc(-c4cnn(C)c4)cc3)C2)cc1NC(=O)c1ccc(N(C)C(C)C)nc1 [Compound #78, 6-(isopropyl(methyl)amino)-N-(2-methyl-5-(3-(4-(1-methyl-1H-pyrazol-4-yl)phenyl)azetidine-1-carbonyl)phenyl)nicotinamide] |
| 0.0417 µM | 98% | 0.263 µM | 0.0355 µM | CNc1ccc(C(=O)N2CCC(c3ccc(-c4cnn(C)c4)cc3)CC2)cc1NC(=O)c1ccc(NC(C)C)nc1 [Compound #279, 6-(isopropylamino)-N-(5-(4-(4-(1-methyl-1H-pyrazol-4-yl)phenyl)piperidine-1-carbonyl)-2-(methylamino)phenyl)nicotinamide] |

| Structure (SMILES) | IC50 [1] | inhibition at 10 µM [1] | IC50 [2] | IC50 [3] |
| --- | --- | --- | --- | --- |
| Cc1ccc(C(=O)N2CCC(c3ccc(-c4cnn(C)c4)cc3)CC2)cc1NC(=O)c1ccc(NC(C)C)nc1 [Compound #32, 6-(isopropylamino)-N-(2-methyl-5-(4-(4-(1-methyl-1H-pyrazol-4-yl)phenyl)piperidine-1-carbonyl)phenyl)nicotinamide] | 0.0269 µM | 104% | 0.0933 µM | 0.01 µM |
